Laboratory results as given in patent US20200261391A1, “METHODS OF REDUCING THE RISK OF A CARDIOVASCULAR EVENT IN A STATIN-TREATED SUBJECT BY INCREASING SERUM AND PLASMA EPA AND DPA LEVELS” (Amarin Pharmaceuticals Ireland Limited, priority 2019, published 2020).
“And” between values parts separate entries of the source, which are not always exact repeats. Identical values can stand only once.

How the values were obtained:
[1] = tested on: patients with elevated triglyceride levels on statin therapy; experiment: REDUCE-IT endpoints by EPA/AA ratio tertile in the icosapent ethyl group compared to placebo; type: in vivo, human
Experimental: This is a study aimed towards determining a relative risk reduction (RRR) between subjects stratified by EPA tertiles in the REDUCE-IT clinical trial described above in Example 1. Samples were obtained from those subjects and total EPA and AA levels in human serum and plasma samples were determined according at least to the methods described in Example 7.
(§1) The objective of this study is to assess the effects of administering icosapent ethyl at 4 g per day to patients from the REDUCE-IT trial of Example 1. More specifically, patients from the REDUCE-IT trial of Example 1 were stratified by their EPA levels into one of three tertiles. Following stratification, the objective was to determine if the RRR differs between patients having EPA levels in the three different tertiles. For the data collected as shown in Tables 38-43 and FIGS. 52, 53, and 56-59, the tertiles were established based on data collected from subjects at 1 year, 2 years, and last visit following icosapent ethyl administration compared to placebo. Data are presented as an average of 1 year, 2 year, […], and end of study values. The data was further analyzed use both pooled and unpooled statistically methods.

[2] = tested on: patients with elevated triglyceride levels on statin therapy; experiment: REDUCE-IT endpoints by pooled (icosapent ethyl and placebo) EPA blood level tertile; type: in vivo, human; conditions: icosapent ethyl and placebo pooled
Excerpt: as §1
(0.84 for lowest vs. placebo, 0.72 for middle vs. placebo, and 0.65 for highest vs. placebo).

[3] = EPA/AA >0.373068 to ≤0.727974, on-treatment average
[4] = EPA/AA >0.727974, on-treatment average
[5] = highest >118.1 μg/mL vs lowest ≤31.305 μg/mL
[6] = highest >118.1 μg/mL vs middle >31.305 to ≤118.1 μg/mL
[7] = middle >31.305 to ≤118.1 μg/mL vs lowest ≤31.305 μg/mL

CC/C=C\C/C=C\C/C=C\C/C=C\C/C=C\CCCC(=O)OCC [icosapent ethyl, eicosapentaenoic acid ethyl ester]
key secondary endpoint HR, middle EPA/AA tertile vs. placebo ([1]; EPA/AA >0.373068 to ≤0.727974): 0.61
primary endpoint HR, middle EPA/AA tertile vs. placebo ([1]; EPA/AA >0.373068 to ≤0.727974): 0.70
HR (95% CI), Key Secondary Endpoint, Middle EPA/AA ratio tertile vs Placebo [1, 3]: 0.61 (0.49, 0.75)
HR (95% CI), Primary Endpoint, Middle EPA/AA ratio tertile vs Placebo [1, 3]: 0.70 (0.59, 0.82)
key secondary endpoint HR, highest EPA/AA tertile vs. placebo ([1]; EPA/AA >0.727974): 0.65
primary endpoint HR, highest EPA/AA tertile vs. placebo ([1]; EPA/AA >0.727974): 0.67
HR (95% CI), Key Secondary Endpoint, Highest EPA/AA ratio tertile vs Placebo [1, 4]: 0.65 (0.54, 0.80)
HR (95% CI), Primary Endpoint, Highest EPA/AA ratio tertile vs Placebo [1, 4]: 0.67 (0.57, 0.79)
key secondary endpoint HR, lowest EPA/AA tertile vs. placebo ([1]; EPA/AA ≤0.373068): 0.94
primary endpoint HR, lowest EPA/AA tertile vs. placebo ([1]; EPA/AA ≤0.373068): 0.83
HR (95% CI), Key Secondary Endpoint, Lowest EPA/AA ratio tertile vs Placebo ([1]; EPA/AA ≤0.373068, on-treatment average): 0.94 (0.78, 1.13)
primary endpoint HR, highest EPA/AA tertile vs. placebo ([1]; FIG. 55, ITT, EPA/AA >0.7403): 0.70 and 0.63
primary endpoint HR, lowest EPA/AA tertile vs. placebo ([1]; FIG. 55, ITT, EPA/AA ≤0.3845): 0.88
HR (95% CI), Key Secondary Endpoint, pooled EPA tertiles, Highest vs Lowest [2, 5]: 0.61 (0.51, 0.71)
HR (95% CI), Primary Endpoint, pooled EPA tertiles, Highest vs Lowest [2, 5]: 0.65 (0.57, 0.74)
HR (95% CI), Key Secondary Endpoint, pooled EPA tertiles, Highest vs Middle [2, 6]: 0.78 (0.65, 0.92)
HR (95% CI), Primary Endpoint, pooled EPA tertiles, Highest vs Middle [2, 6]: 0.80 (0.70, 0.92)
HR (95% CI), Key Secondary Endpoint, pooled EPA tertiles, Middle vs Lowest [2, 7]: 0.78 (0.67, 0.91)
HR (95% CI), Primary Endpoint, pooled EPA tertiles, Middle vs Lowest [2, 7]: 0.81 (0.71, 0.92)
